This note sets out measurements from US8653003B2, “Pyrazol-4-yl carboxamide derivatives as microbiocides” (Syngenta Participations AG, priority 2011, dated 2014).

The structures appear in SMILES notation.

Data set [1] has as its system Puccinia recondita. The data set is described as follows: Protective action against Puccinia recondita (brown rust) on wheat leaf segments. The format is in vivo. Conditions: foliar, 192 h, 0.02% active ingredient sprayed on wheat leaf segments, assessed 8 days after inoculation, read-out: preventive fungicidal activity (inhibition). The procedure: Wheat leaf segments were placed on agar in multiwell plates (24-well format) and sprayed with test solutions (0.02% active ingredient). After drying, the leaf disks were inoculated with a spore suspension of the fungus. After appropriate incubation the activity of a compound was assessed 8 days after inoculation as preventive fungicidal activity.

For data set [2], the system named is Erysiphe graminis f. sp. tritici. Kind of data set: Action against Erysiphe graminis f. sp. tritici (wheat powdery mildew), wheat leaf segments. Type of data set: in vivo. To be noted: Blumeria graminis, foliar, 168 h; 0.02% active ingredient sprayed on wheat leaf segments, assessed 7 days after inoculation; read-out: preventive fungicidal activity (inhibition). The procedure:
Wheat leaf segments were placed on agar in multiwell plates (24-well format) and sprayed with test solutions (0.02% active ingredient). After drying, the leaf disks were inoculated with a spore suspension of the fungus. After appropriate incubation the activity of a compound was assessed 7 days after inoculation as preventive fungicidal activity.

The subject of data set [3] is Puccinia recondita. Kind of data set: Curative action against Puccinia recondita (brown rust) on wheat leaf segments. The format is in vivo. To be noted: foliar, 0.02% active ingredient sprayed one day after inoculation, assessed 8 days after inoculation, read-out: curative fungicidal activity (inhibition). The procedure:
Wheat leaf segments were placed on agar in multiwell plates (24-well format) and inoculated with a spore suspension of the fungus. One day after inoculation the leaf segments were sprayed with test solutions (0.02% active ingredient). After appropriate incubation the activity of a compound was assessed 8 days after inoculation as curative fungicidal activity.

For a further data set, the system named is Septoria tritici. Kind of data set: Action against Septoria tritici - fungal growth assay. The format is cell-based. Conditions: Zymoseptoria tritici; 0.002% active ingredient, PDB broth, 24° C., photometric after 72 hrs. The procedure:
Conidia of the fungus from cryogenic storage were directly mixed into nutrient broth (PDB potato dextrose broth). After placing a (DMSO) solution of the test compounds (0.002% active ingredient) into a microtiter plate (96-well format) the nutrient broth containing the fungal spores was added. The test plates were incubated at 24° C. and the inhibition of growth was determined photometrically after 72 hrs. The activity of a compound was expressed as fungal growth inhibition (0=no growth inhibition, ratings of 80% to 99% mean good to very good inhibition, 100%=complete inhibition).

A further data set has as its system Pyrenophora teres. Kind of data set: Action against Pyrenophora teres (net blotch) on barley leaf segments. Type of data set: in vivo. To be noted: foliar, 96 h, 0.02% active ingredient sprayed on barley leaf segments, assessed 4 days after inoculation, read-out: preventive fungicidal activity (inhibition). The procedure: Barley leaf segments were placed on agar in multiwell plates (24-well format) and sprayed with test solutions (0.02% active ingredient). After drying, the leaf disks were inoculated with a spore suspension of the fungus. After appropriate incubation the activity of a compound was assessed 4 days after inoculation as preventive fungicidal activity.

The subject of data set [4] is Mycosphaerella arachidis (Cercospora arachidicola [anamorph]). Kind of data set: Action against Mycosphaerella arachidis (early leaf spot of groundnut) - fungal growth assay. To be noted: 0.002% active ingredient, PDB broth, 24° C., photometric after 6-7 days. Type of data set: cell-based. As to the method: Conidia of the fungus from cryogenic storage were directly mixed into nutrient broth (Pdb potato dextrose broth). After placing a (DMSO) solution of the test compounds (0.002% active ingredient) into a microtiter plate (96-well format) the nutrient broth containing the fungal spores was added. The test plates were incubated at 24° C. and the inhibition of growth was measured photometrically after 6-7 days. The activity of a compound was expressed as fungal growth inhibition (0=no growth inhibition, ratings of 80% to 99% mean good to very good inhibition, 100%=complete inhibition).

A further data set concerns Botrytis cinerea. Kind of data set: Action against Botrytis cinerea - fungal growth assay. The format is cell-based. Conditions: 0.002% active ingredient, PDB broth, 24° C., photometric after 3-4 days. The procedure: Conidia of the fungus from cryogenic storage was directly mixed into nutrient broth (PDB potato dextrose broth). After placing a (DMSO) solution of the test compounds (0.002% active ingredient) into a microtiter plate (96-well format) the nutrient broth containing the fungal spores was added. The test plates were incubated at 24° C. and the inhibition of growth was measured photometrically after 3-4 days. The activity of a compound was expressed as fungal growth inhibition (0=no growth inhibition, ratings of 80% to 99% mean good to very good inhibition, 100%=complete inhibition).

Regarding `CON(C(=O)c1cn(C)nc1C(F)F)C1CCCc2ccc(Cl)cc21` (stereo not shown) [Compound 1.003, 3-difluoromethyl-1-methyl-1H-pyrazole-4-carboxylic acid (7-chloro-1,2,3,4-tetrahydro-naphthalen-1-yl)-methoxy-amide], the inhibition at 0.02 % strength (in the data set on Puccinia recondita [1]; in data set [2]; in the data set on Puccinia recondita [3]; with Pyrenophora teres) was no less than 80% in each case. In addition, the inhibition at 0.002 % strength (with Septoria tritici; in data set [4]) was no less than 80% in each case.

In turn, `CON(C(=O)c1cn(C)nc1C(F)F)C1CCCc2ccccc21` (stereo not shown) [Compound 1.001] showed a melting point of 91 to 95 °C. In the data set on Puccinia recondita [1], the inhibition at 0.02 % strength is no less than 80%. The inhibition at 0.02 % strength in data set [2] is no less than 80%. In addition, in the data set on Puccinia recondita [3], the inhibition at 0.02 % strength was no less than 80%. In addition, the inhibition at 0.002 % strength in the data set on Botrytis cinerea was no less than 80%. The compound further returned an inhibition at 0.002 % strength with Septoria tritici of no less than 80%. The inhibition at 0.02 % strength in the data set on Pyrenophora teres is no less than 80%. In data set [4], this compound displayed an inhibition at 0.002 % strength of no less than 80%.

As for `CON(C(=O)c1cn(C)nc1C(F)F)C1CCCCc2ccc(I)cc21` (stereo not shown) [Compound 1.062, 3-difluoromethyl-1-methyl-1H-pyrazole-4-carboxylic acid (3-iodo-6,7,8,9-tetrahydro-5-H-benzocyclohepten-5-yl)-methoxy-amide], the inhibition at 0.02 % strength in the data set on Puccinia recondita [1] and with Puccinia recondita [3] was no less than 80% in each case. Besides, the inhibition at 0.002 % strength (in the data set with Septoria tritici; in data set [4]) was no less than 80% in each case.

On to `CON(C(=O)c1cn(C)nc1C(F)F)C1c2ccccc2CCCC1F` (stereo not shown) [Compound 1.065, 3-difluoromethyl-1-methyl-1H-pyrazole-4-carboxylic acid (6-fluoro-6,7,8,9-tetrahydro-5-H-benzocyclohepten-5-yl)-methoxy-amide], for which the inhibition at 0.02 % strength (in the data set on Puccinia recondita [1]; in data set [2]; in the data set on Puccinia recondita [3]; in the data set with Pyrenophora teres) was no less than 80% throughout. The inhibition at 0.002 % strength (with Botrytis cinerea; in the data set on Septoria tritici; in data set [4]) was no less than 80% in each case.

By inhibition is commonly meant the change of the read-out against control, counted positive when it falls. As usually defined, the melting point is the temperature of the solid-liquid transition.
